Data on 3 molecules can be found in patent US11230535B2, “CFTR regulators and methods of use thereof” (THE REGENTS OF THE UNIVERSITY OF CALIFORNIA, priority 2015, dated 2022).

In experiment [1] the test system is CFTR activity at the ocular surface. The experiment can be described thus: Ocular surface potential difference (PD) in living mice. It counts as in vivo, mouse. To be noted: CF mice lacking functional CFTR. As for the experimental part: (§1) Open-circuit transepithelial PD were measured continuously in anesthetized mice in response to serial perfusions of different solutions over the ocular surface, as described (21). Mice were anesthetized with Avertin (2,2,2-tribromoethanol, 125 mg/kg intraperitoneal, Sigma-Aldrich, St. Louis, Mo., USA), and core temperature was maintained at 37° C. using a heating pad. Eyes were oriented with the cornea and conjunctiva facing upward and exposed by retracting the eyelid with cross-action forceps. Solutions were isosmolar (320±10 mOsM; compositions provided in ref. 21) and contained 10μ[…] Qindomethacin to prevent CFTR activation by prostaglandins. The ocular surface was perfused at 6 mL/min through plastic tubing using a multireservoir gravity pinch-valve system (ALA Scientific, Westbury, N.Y., USA) and variable-flow peristaltic pump (medium flow model; Fisher Scientific, Fair Lawn, N.J., USA). A probe catheter was fixed 1 mm above the cornea using a micropositioner and a suction cannula was positioned 3 mm from the orbit. The measuring electrode was in contact to the perfusion catheter and connected to a high-impedance voltmeter (IsoMilivolt Meter; WPI). The reference electrode was grounded via a winged 21-gauge needle filled with isosmolar saline, and inserted subcutaneously in the abdomen. Measuring and reference electrodes consisted of Ag/AgCl with 3 M KCl agar bridges.
An open-circuit potential difference (PD) method developed in our lab was used to evaluate compound activity at the ocular surface in vivo, as depicted in FIG. 3A (21). Cl^− channel function was quantified by measuring PD during continuous perfusion of the ocular surface with a series of solutions that imposed a transepithelial Cl^− gradient and contained various channel agonists and/or inhibitors. The ocular surface was first perfused with isosmolar saline to record the baseline PD. Amiloride was then added to the perfusate, followed by exchange to a low Cl^− solution in which Cl^− with an impermeant anion, gluconate. These maneuvers allow for direct visualization of CFTR activation in response to addition of candidate CFTR activators.
as §1, with “Ocular surface potential difference measurements. Open-circuit” for “Open-circuit”, “indomethacin” for “Qindomethacin”, “Measuring and reference electrodes consisted of Ag/AgCl with 3 M KCl agar bridges.” left out

Experiment [2] has as its target T1, human wild-type CFTR (Homo sapiens, UniProt P13569). The experiment can be described thus: Short-circuit current in FRT cells expressing wild-type human CFTR. It counts as cell-based. Set-up: expressed in transfected cells. Particulars: 100% = 20 μM forskolin. As for the experimental part:
Short-circuit current was measured in FRT cells stably expressing wild-type human CFTR cultured on porous filters as described. The basolateral solution contained 130 mM NaCl, 2.7 mM KCl, 1.5 mM KH2PO4, 1 mM CaCl2, 0.5 mM MgCl2, 10 mM glucose, and 10 mM Na-HEPES (pH 7.3, 37° C.). In the apical solution 65 mM NaCl was replaced by Na gluconate, and CaCl2 was increased to 2 mM, and the basolateral membrane was permeabilized with 250 μg/ml amphotericin B. Short-circuit current was measured in freshly harvested adult mouse colon at 37° C. using symmetrical Krebs-bicarbonate buffer.
(§2) Fischer rat thyroid (FRT) cells stably expressing wild-type human CFTR were cultured on Snapwell inserts (Corning Costar, Corning N.Y., USA) for short-circuit current (Isc) measurements. After 6-9 days in culture, when the transepithelial resistance was >1000 Ω/cm^2, the inserts were mounted in an Ussing chamber system (World Precision Instruments, Sarasota, Fla., USA). The basolateral solution contained 130 mM NaCl, 2.7 mM KCl, 1.5 mM KH2PO4, 1 mM CaCl2, 0.5 mM MgCl2, 10 mM glucose, and 10 mM Na-HEPES (pH 7.3). In the apical bathing solution, 65 mM NaCl was replaced by Na gluconate, and CaCl2 was increased to 2 mM. Both solutions were bubbled with air and maintained at 37° C. The basolateral membrane was permeabilized with 250 μg/ml amphotericin B (26, 27). Hemichambers were connected to a DVC-1000 voltage clamp via Ag/AgCl electrodes and 3 M KCl agar bridges for Isc recording.
Short-circuit current measurement. Short-circuit current was measured in FRT cells stably expressing wild-type human CFTR cultured on porous filters as described. The basolateral solution contained 130 mM NaCl, 2.7 mM KCl, 1.5 mM KH2PO4, 1 mM CaCl2, 0.5 mM MgCl2, 10 mM glucose, and 10 mM Na-HEPES (pH 7.3, 37° C.). In the apical solution 65 mM NaCl was replaced by Na gluconate, and CaCl2 was increased to 2 mM, and the basolateral membrane was permeabilized with 250 μg/ml amphotericin B. Short-circuit current was measured in freshly harvested adult mouse colon at 37° C. using symmetrical Krebs-bicarbonate buffer.
as §2, with “Short-circuit current. Fischer” for “Fischer”
Short-circuit current measurement. Short-circuit current measurements were done as described. Briefly, Snapwell (Corning Costar, Corning, N.Y.) inserts containing CFTR-expressing FRT cells or human bronchial epithelial cells were mounted in Ussing chambers (Physiological Instruments, San Diego, Calif.). For FRT cells the hemichambers were filled with 5 ml of HCO3^−-buffered solution (basolateral) and half-Cl^− solution (apical), and the basolateral membrane was permeabilized with 250 μg/ml amphotericin B. Symmetrical HCO3^−-buffered solutions were used for human bronchial epithelial cells. Solutions were bubbled with 95% O2/5% CO2 and maintained at 37° C., and short-circuit current was measured on a DVC-1000 voltage clamp (World Precision Instruments Inc., Sarasota, Fla.) using Ag/AgCl electrodes and 3 M KCl agar bridges.

Experiment [3] deals with T1, human wild-type CFTR. The experiment in a line: Cell-based plate reader (YFP iodide influx) assay of CFTR function. Set-up: expressed in transfected cells; host or cells: Fischer rat thyroid (FRT) cells stably co-expressing YFP-H148Q. Particulars: commercial analogs. How it is done:
The initiate rate of I^− influx was computed by determined using exponential regression. All compound plates contained negative controls (DMSO vehicle) and positive controls (20 μM forskolin).
High-throughput screening. […] The initiate rate of I^− influx was computed by determined using exponential regression. All compound plates contained negative controls (DMSO vehicle) and positive controls ([…] forskolin).
Platereader assays of chloride channel function. CFTR activity was assayed as described. […] I^− influx was measured in a plate reader with initial baseline read for 2 s and then for 12 s after rapid addition of an I^−-containing solution. TMEM16A activity was assayed similarly as described using FRT cells co-expressing YFP and TMEM16A. Activity of non-TMEM16A CaCC was assayed as described in HT-29 cells expressing YFP. In each assay initial rates of I^− influx were computed as a linear measure of channel function.

The test system of a further experiment is constipation patients. Particulars: cited from earlier work.
The test system of a further experiment is loperamide-treated mice. The experiment can be described thus: Loperamide-induced mouse model of constipation (3-h stool weight, pellet number, water content). To be noted: oral 0.5 mg/kg, loperamide-treated mice.

Like-named read-outs stand apart in the source and are kept apart here. Positions of bridges follow the written chain, without caps; N, C: chain ends. Residues, ends and D or L forms follow the SMILES beside them.

T1 sequence (P13569 whole entry): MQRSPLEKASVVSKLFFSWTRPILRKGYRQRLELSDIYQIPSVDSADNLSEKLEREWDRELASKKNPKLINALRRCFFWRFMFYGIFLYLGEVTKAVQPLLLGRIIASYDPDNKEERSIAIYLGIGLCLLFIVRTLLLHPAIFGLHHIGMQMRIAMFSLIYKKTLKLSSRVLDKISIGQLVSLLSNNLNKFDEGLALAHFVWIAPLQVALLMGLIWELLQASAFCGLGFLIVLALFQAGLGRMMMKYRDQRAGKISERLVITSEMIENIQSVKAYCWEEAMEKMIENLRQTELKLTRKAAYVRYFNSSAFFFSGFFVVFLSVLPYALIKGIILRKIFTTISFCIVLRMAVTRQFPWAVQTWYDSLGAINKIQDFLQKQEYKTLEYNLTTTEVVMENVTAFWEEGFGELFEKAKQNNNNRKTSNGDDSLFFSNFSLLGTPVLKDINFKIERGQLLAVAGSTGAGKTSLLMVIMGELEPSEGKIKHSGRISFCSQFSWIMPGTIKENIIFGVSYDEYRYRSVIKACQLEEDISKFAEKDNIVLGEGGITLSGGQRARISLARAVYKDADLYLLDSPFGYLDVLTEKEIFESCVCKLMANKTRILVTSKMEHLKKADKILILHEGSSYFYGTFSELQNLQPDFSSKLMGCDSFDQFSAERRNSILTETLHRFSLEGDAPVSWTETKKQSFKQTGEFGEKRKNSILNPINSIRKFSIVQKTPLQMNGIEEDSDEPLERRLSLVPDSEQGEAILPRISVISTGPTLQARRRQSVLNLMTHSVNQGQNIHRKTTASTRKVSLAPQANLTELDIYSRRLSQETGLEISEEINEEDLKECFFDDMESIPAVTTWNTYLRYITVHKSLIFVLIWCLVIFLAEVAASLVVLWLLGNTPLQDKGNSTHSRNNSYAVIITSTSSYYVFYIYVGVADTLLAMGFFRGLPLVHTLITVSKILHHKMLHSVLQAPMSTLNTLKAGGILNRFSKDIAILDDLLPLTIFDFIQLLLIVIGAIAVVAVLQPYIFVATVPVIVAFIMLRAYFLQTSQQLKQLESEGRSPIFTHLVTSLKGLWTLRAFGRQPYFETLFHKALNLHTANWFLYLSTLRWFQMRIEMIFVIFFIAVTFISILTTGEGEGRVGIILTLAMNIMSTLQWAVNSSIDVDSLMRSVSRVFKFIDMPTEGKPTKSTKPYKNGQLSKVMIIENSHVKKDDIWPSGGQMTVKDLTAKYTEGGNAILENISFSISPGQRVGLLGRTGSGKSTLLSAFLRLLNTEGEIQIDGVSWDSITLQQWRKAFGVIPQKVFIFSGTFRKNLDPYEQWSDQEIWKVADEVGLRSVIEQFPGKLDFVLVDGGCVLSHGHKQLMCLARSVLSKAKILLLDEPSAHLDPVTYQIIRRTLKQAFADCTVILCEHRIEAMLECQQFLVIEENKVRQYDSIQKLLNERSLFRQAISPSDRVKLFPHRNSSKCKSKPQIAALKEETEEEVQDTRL

For the molecule `CNc1nc(Nc2ccc([N+](=O)[O-])cc2)nc(OCC(F)(F)C(F)F)n1` [K032], in experiment [1], the “change in ocular surface PD in CF mice” value was “no changes in PD”. The “CFTR activation, Vmax” value on human wild-type CFTR [2] was approximately 50 % Vmax. In addition, the “% Activation” value on human wild-type CFTR [3] (FRT cells with YFP and wildtype CFTR, 125 nM forskolin) came to 105%. In addition, the EC50 on human wild-type CFTR [3] (read-out: EC50 (full-dose response assay, compounds >80% activation)) was found to be 70 nM.

As for `C[C@@H]1NC(=O)[C@@H]2CCCN2C(=O)[C@H](CC(N)=O)NC(=O)[C@@H]2CSSC[C@H](N)C(=O)N[C@H]3CSSC[C@H](NC1=O)C(=O)N[C@@H]([C@@H](C)O)C(=O)NCC(=O)N[C@H](C(=O)N[C@@H](Cc1ccc(O)cc1)C(=O)O)CSSC[C@H](NC(=O)[C@H](Cc1ccc(O)cc1)NC(=O)[C@H](CCC(=O)O)NC3=O)C(=O)N2` [linaclotide, reference compound] (H-CCEYCCNPACTGCY-OH; disulfide 1-6, 2-10, 5-13), the “patients in whom the drug was effective” value in the experiment on constipation patients (chronic constipation patients) is approximately 20%. Moreover, in the experiment with loperamide-treated mice, the “stool output response as % of the maximal CFTRact-J027 response” value was determined as 35%.

For the molecule `CCCCC(F)(F)[C@@]1(O)CC[C@H]2[C@@H](CC(=O)[C@@H]2CCCCCCC(=O)O)O1` [lubiprostone, reference compound], the “patients in whom the drug was effective” value in the experiment on constipation patients (IBS-C patients) is listed as approximately 13%. Moreover, the “stool output response as % of the maximal CFTRact-J027 response” value with loperamide-treated mice was 50%.
